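Protocol summary: plate cells (96-well), add compound at 5 concentrations, incubate 48 h, interpolate endpoints linearly. GI50 = concentration required for 50% inhibition of growth.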 Active and inactive are the calls of the source. Cut-off read from the data, not from the text of the source: active = GI50 up to about 1.1 µM and inactive = higher.
Experiments:
Assay in all cases: DTP human tumour cell line panel, 48 h
DU-145 = tested on: DU-145
IGROV-1 = tested on: IGROV-1
K562 = tested on: K562
EKVX = tested on: EKVX
Hs-578T = tested on: Hs-578T
NCI/ADR-RES = tested on: NCI/ADR-RES
A498 = tested on: A498
M14 = tested on: M14
NCI-H522 = tested on: NCI-H522
UACC-62 = tested on: UACC-62
RXF 393 = tested on: RXF 393
RPMI-8226 = tested on: RPMI-8226
UO-31 = tested on: UO-31
OVCAR-5 = tested on: OVCAR-5
CAKI-1 = tested on: CAKI-1
SK-MEL-2 = tested on: SK-MEL-2
SK-MEL-5 = tested on: SK-MEL-5
NCI-H226 = tested on: NCI-H226
SF-295 = tested on: SF-295
PC-3 = tested on: PC-3
ACHN = tested on: ACHN
SNB-75 = tested on: SNB-75
T47D = tested on: T47D
BT-549 = tested on: BT-549
OVCAR-3 = tested on: OVCAR-3
HCT-116 = tested on: HCT-116
SW-620 = tested on: SW-620
MCF7 = tested on: MCF7
COLO 205 = tested on: COLO 205
KM12 = tested on: KM12
HL-60 = tested on: HL-60
SK-MEL-28 = tested on: SK-MEL-28
HT-29 = tested on: HT-29
SF-268 = tested on: SF-268
SR = tested on: SR
Malme-3M = tested on: Malme-3M
MDA-MB-435 = tested on: MDA-MB-435
OVCAR-8 = tested on: OVCAR-8
TK-10 = tested on: TK-10
A549 = tested on: A549
SK-OV-3 = tested on: SK-OV-3
OVCAR-4 = tested on: OVCAR-4
SNB-19 = tested on: SNB-19
MOLT-4 = tested on: MOLT-4
NCI-H23 = tested on: NCI-H23
MDA-MB-231 = tested on: MDA-MB-231
HCT-15 = tested on: HCT-15
786-0 = tested on: 786-0
U-251 = tested on: U-251
CCRF-CEM = tested on: CCRF-CEM
UACC-257 = tested on: UACC-257
SN12C = tested on: SN12C
HCC 2998 = tested on: HCC 2998
HOP-62 = tested on: HOP-62
LOX IMVI = tested on: LOX IMVI
SF-539 = tested on: SF-539
MDA-N = tested on: MDA-N
NCI-H460 = tested on: NCI-H460

Measured: GI50

COc1nc(C(=O)NNC(=O)c2nc(OC)c3ccccc3c2-c2ccccc2)c(-c2ccccc2)c2ccccc12
active: SR 0.113 µM
> 100 µM: HCT-15
inactive: DU-145 > 100 µM | IGROV-1 > 100 µM | K562 > 100 µM | EKVX > 100 µM | Hs-578T > 100 µM | NCI/ADR-RES > 100 µM | A498 > 100 µM | M14 > 100 µM | NCI-H522 > 100 µM | UACC-62 > 100 µM | RXF 393 > 100 µM | RPMI-8226 > 100 µM | UO-31 > 100 µM | OVCAR-5 > 100 µM | CAKI-1 > 100 µM | SK-MEL-2 > 100 µM | SK-MEL-5 > 100 µM | NCI-H226 > 100 µM | SF-295 > 100 µM | PC-3 > 100 µM | ACHN > 100 µM | SNB-75 96.6 µM | T47D > 100 µM | BT-549 > 100 µM | OVCAR-3 > 100 µM | HCT-116 > 100 µM | SW-620 > 100 µM | MCF7 > 100 µM | COLO 205 > 100 µM | KM12 > 100 µM | HL-60 > 100 µM | SK-MEL-28 > 100 µM | HT-29 > 100 µM | SF-268 > 100 µM | Malme-3M > 100 µM | MDA-MB-435 > 100 µM | OVCAR-8 > 100 µM | TK-10 > 100 µM | A549 > 100 µM | SK-OV-3 > 100 µM | OVCAR-4 > 100 µM | SNB-19 > 100 µM | MOLT-4 > 100 µM | NCI-H23 > 100 µM | MDA-MB-231 > 100 µM | 786-0 > 100 µM | U-251 > 100 µM | CCRF-CEM > 100 µM | UACC-257 > 100 µM | SN12C > 100 µM | HCC 2998 > 100 µM | HOP-62 > 100 µM

OCC1COc2cc(Cl)c(Cl)cc2O1 (stereo unspecified)
inactive: DU-145 > 10 µM | IGROV-1 > 10 µM | K562 > 10 µM | LOX IMVI > 10 µM | EKVX > 10 µM | Hs-578T > 10 µM | NCI/ADR-RES > 10 µM | A498 > 10 µM | M14 > 10 µM | NCI-H522 1.42 µM | UACC-62 > 10 µM | RXF 393 > 10 µM | SF-539 > 10 µM | RPMI-8226 > 10 µM | UO-31 > 10 µM | OVCAR-5 > 10 µM | CAKI-1 > 10 µM | SK-MEL-2 > 10 µM | SK-MEL-5 > 10 µM | NCI-H226 6.3 µM | SF-295 > 10 µM | PC-3 > 10 µM | ACHN > 10 µM | SNB-75 > 10 µM | T47D > 10 µM | OVCAR-3 > 10 µM | HCT-116 > 10 µM | SW-620 > 10 µM | MCF7 > 10 µM | COLO 205 > 10 µM | KM12 > 10 µM | MDA-N > 10 µM | HL-60 > 10 µM | SK-MEL-28 > 10 µM | HT-29 > 10 µM | SF-268 > 10 µM | SR > 10 µM | Malme-3M > 10 µM | MDA-MB-435 > 10 µM | OVCAR-8 > 10 µM | TK-10 > 10 µM | A549 > 10 µM | SK-OV-3 > 10 µM | OVCAR-4 > 10 µM | NCI-H460 > 10 µM | SNB-19 > 10 µM | MOLT-4 > 10 µM | NCI-H23 > 10 µM | MDA-MB-231 > 10 µM | U-251 > 10 µM | CCRF-CEM > 10 µM | SN12C > 10 µM | HCC 2998 > 10 µM | HOP-62 > 10 µM
> 10 µM: HCT-15

C=CCN(C(=O)OC(C)(C)C)C1=CC2C(C)=CN(S(=O)(=O)c3ccccc3)C2C(OCc2ccccc2)=C1 (stereo unspecified)
> 100 µM: HCT-15
inactive: DU-145 > 100 µM | IGROV-1 > 100 µM | K562 7.59 µM | LOX IMVI > 100 µM | EKVX > 100 µM | Hs-578T > 100 µM | NCI/ADR-RES > 100 µM | M14 > 100 µM | NCI-H522 > 100 µM | UACC-62 > 100 µM | RXF 393 36.1 µM | RPMI-8226 > 100 µM | UO-31 > 100 µM | OVCAR-5 > 100 µM | CAKI-1 > 100 µM | SK-MEL-2 > 100 µM | SK-MEL-5 > 100 µM | NCI-H226 > 100 µM | SF-295 > 100 µM | PC-3 > 100 µM | ACHN > 100 µM | SNB-75 6.18 µM | BT-549 > 100 µM | OVCAR-3 > 100 µM | HCT-116 54 µM | SW-620 > 100 µM | MCF7 > 100 µM | COLO 205 > 100 µM | KM12 > 100 µM | MDA-N > 100 µM | HL-60 > 100 µM | SK-MEL-28 > 100 µM | HT-29 13.4 µM | Malme-3M > 100 µM | MDA-MB-435 > 100 µM | OVCAR-8 > 100 µM | TK-10 > 100 µM | A549 > 100 µM | SK-OV-3 > 100 µM | OVCAR-4 > 100 µM | NCI-H460 > 100 µM | MOLT-4 > 100 µM | NCI-H23 > 100 µM | MDA-MB-231 > 100 µM | 786-0 > 100 µM | U-251 > 100 µM | CCRF-CEM > 100 µM | UACC-257 > 100 µM | SN12C > 100 µM | HCC 2998 > 100 µM | HOP-62 > 100 µM
